Experimental data as given in patent publication US20080182277A1, “Assays and methods using biomarkers” (Genentech, Inc., priority 2005, published 2008).

How the values were obtained:
DLD-1 tumor xenografts = test: Tumor xenograft study, DLD-1; assay type: in vivo, mice; conditions: Fut-6-positive DLD-1; 60 mg/kg/day i.p. on days 0-4
Protocol: FIG. 10A-D illustrates differential expression of specific O-glycosylation enzymes in Apo2L/TRAIL-sensitive and -resistant cancer cell lines: (A) Cell viability was measured after incubation with varying doses of Apo2L/TRAIL. IC50 for each cell line was computed as the concentration of Apo2L/TRAIL that gives 50% loss of viability. Each cell viability experiment was repeated at least three times in presence of low (0.5%) and high (10%) fetal bovine serum. Black, grey, or open symbols depict cell lines that are highly sensitive, moderately sensitive, or resistant to Apo2L/TRAIL, respectively. (B) ppGalNAcT-14 mRNA expression levels (probe set 219271 at) in pancreatic and malignant melanoma cell lines. Cell lines are arranged by tissue type and sensitivity to Apo2L/TRAIL. […] Athymic nude mice carrying GalNAcT-3/Fut-6-positive (left panel) or GalNAcT-3/Fut-6-negative (right panel) tumors received vehicle or Apo2L/TRAIL (60 mg/kg/day i.p. on days 0-4) and tumor volume was monitored (mean ±SE, N=10 mice/group).
Monosaccharide composition of CHO-cell-derived DR5 was obtained after hydrolysis with 4 N TFA. […] Tumor measurements were collected by a digital caliper and tumor volumes calculated using the formula […] (A=length) (B=width)^2. […]

DLD-1 cells = test: Immunoblot analysis of the Apo2L/TRAIL-induced caspase cascade, DLD-1; assay type: cell-based, human; conditions: siRNA 48 h, Apo2L/TRAIL 4 or 8 h
Protocol: FIG. 12 illustrates (A) Analysis of the caspase cascade induced by Apo2L/TRAIL. PSN-1 and DLD-1 cells were transfected with siRNAs against ppGalNAcT-14 or Fut-6, respectively, for 48 h. The cells were treated with Apo2L/TRAIL for 4 or 8 h, and cell lysates were analyzed by immunoblot with antibodies specific for caspase-8, Bid, caspase-9, caspase-3, or actin as a loading control. (B) PSN-1 cells were transfected with ppGalNAcT-14 siRNA as in A, treated with Apo2L/TRAIL for 4 h, and caspase-3/7 enzymatic activity in cell lysates was determined. (C) Analysis of the Apo2L/TRAIL DISC. PSN-1 cells were transfected with ppGalNAcT-14 siRNA as in A. FLAG-Apo2L/TRAIL ([…]) was added for 0-60 min, the cells were lysed, and subjected to an immunoprecipitation with an anti-FLAG antibody. DISC-associated FADD, caspase-8, DR4, and were detected by immunoblot. (D) PSN-1 cells were transfected, treated, and subjected to DISC immunoprecipitation as in C, and DISC-associated caspase-8 enzymatic activity was measured as previously described (Sharp et al., J. Biol. Chem., 280:19401 (2005).
siRNAs were purchased as double stranded RNA oligonucleotides and transfected into the respective cell lines at a final concentration of 25 nM for each siRNA. siRNA duplexes against a non-targeting sequence (Dharmacon) was used as a control. […]

Apo2L/TRAIL: nontagged soluble recombinant human Apo2L/TRAIL, prepared as described in Lawrence et al.
effect on growth of established tumor xenografts (DLD-1 tumor xenografts): tumor regression followed by a greatly delayed tumor progression
Apo2L/TRAIL-induced caspase processing (caspase-8, Bid, caspase-9, caspase-3) (DLD-1 cells): essentially complete processing of caspase-8
